Converted amounts (≈) assume the structure as drawn. Like-named read-outs stand apart in the source and are kept apart here. Each block holds one compound with its values, some of them ahead of it.
Assays:
C. jejuni = assay: MIC testing by broth dilution, C. jejuni; type: cell-based, Campylobacter jejuni
Procedure, shortened: (§1)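 Twofold broth microdilution from 32 μg/ml down to 0.06, in LB for E. coli, Trypticase Soy for S. epidermidis (planktonic) and Brain Heart Infusion for C. jejuni. C. difficile: anaerobic disk diffusion on Wilkins Chalgrin agar, inhibition zone expressed as a ratio to the NTZ zone.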

S. epidermidis biofilm = S. epidermidis biofilm assay (activity tables); type: cell-based, Staphylococcus epidermidis
Protocol: Staphylococcal strains were cultured overnight in TSB at 37° C. with shaking, diluted in fresh medium to an OD600 of 0.01 and 200 W was dispensed into sterile flat bottom polystyrene 96 well microtiter plates (Costar 3596, Corning Inc.). […] Each compound and dilution was tested in triplicate. The plates were incubated overnight at 37° C. in a humidified incubator, without shaking and both growth and biofilm accumulation were determined at 16 h.
Following recording of turbidities, the culture medium was aspirated and the wells were washed three times with distilled water, blotted on paper towels, and fixed with 75% ethanol for 10 minutes.
To visualize biofilm material, 0.5% crystal violet was added to each well and after 5 minutes was removed and the wells washed three times with distilled water. Plates were read using a microplate reader at a wavelength of 570 nm. The dye was then extracted by adding 200 W of 95% ethanol, and the absorbance was read again at 570 nm. All assays were performed in triplicate and the mean and standard deviation determined. […]
(§2) Representative compounds of the invention were tested in a series of assays against a series of organisms as described above. […] The organisms tested include, C. difficile, H. pylori, C. jejuni, MRSA, S. epidermidis, and E. coli. S. epidermidis and E. coli were tested in the plank and biofilm assay. A disk diffusion assay was also used for C. difficile. Direct PFOR enzyme assays were also performed. All analogues and derivatives were not tested on every organism in every type of assay (the “-” in each table means that it was not tested).

S. epidermidis = assay: MIC testing by broth dilution, S. epidermidis plank; type: cell-based, Staphylococcus epidermidis
Procedure, shortened: as §1

E. coli biofilm = E. coli biofilm assay (activity tables); type: cell-based, Escherichia coli
Procedure, shortened: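 After 24 h static culture at 37 °C in wells containing NTZ, strain 042 (1:100 inoculum) biofilm was quantified by 0.5% crystal violet absorbance at 570 nm. Planktonic growth was taken from turbidity or LB plate counts as cfu/ml; all runs triplicate, reported as mean and SD.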

[1] = tested on: PFOR (pyruvate ferredoxin oxidoreductase); assay: Direct PFOR enzyme assay; type: biochemical
Protocol: as §2

MRSA = assay: MIC testing by broth dilution, MRSA; type: cell-based, Staphylococcus aureus
Procedure, shortened: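 Values are broth-dilution MICs, defined as the well showing no growth on visual reading after 24 h; the tested range was 32 to 0.06 μg/ml, in organism-specific media (LB, Trypticase Soy, Brain Heart Infusion). The C. difficile entries come instead from anaerobic Kirby-Bauer disk zones, normalised to NTZ.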

E. coli = assay: MIC testing by broth dilution, E. coli plank; type: cell-based, Escherichia coli
Procedure, shortened: as §1

H. pylori = assay: MIC testing by broth dilution, H. pylori; type: cell-based, Helicobacter pylori
Procedure, shortened: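 Broth dilution MIC determination against H. pylori: a standard inoculum in 100 microliters of Brain Heart Infusion medium was placed in 96 well microplates. Test compounds began at 32 μg/ml in 200 microliters in well one and were serially diluted over a 32 to 0.06 range. After 24 h, plates were scored by eye and the first well without growth was recorded as the MIC.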

C. difficile [2] = assay: Disk diffusion (Kirby Bower), C. difficile; type: cell-based, Clostridium difficile; conditions: for Disk Diff (%) C. difficile: Nitazoxanide = 100, Thiophene analogues table
Procedure, shortened: as §1

C. difficile [3] = assay: MIC by agar dilution, C. difficile; type: cell-based, Clostridium difficile
Protocol: A standard broth dilution protocol was used in 96 well microplates containing a standard dilution of the microorganism to be tested in 100 microliters of the appropriate medium. Appropriate medium: E. coli, LB medium; Staphylococcus strains, Trypticase Soy; and for H. pylori and C. jejuni, Brain Heart Infusion. The compounds to be tested were set at 32 μg/ml in 200 microliters in well one and then serially diluted to provide a range from 32 to 0.06. The wells were scored visually at 24 h. The well where there was no growth was recorded as the MIC. […]
as §2

[4] = Furan analogues table, read-out: MIC C. jejuni
[5] = planktonic, Furan analogues table, read-out: MIC S. epidermidis Plank
[6] = biofilm, Furan analogues table, read-out: MIC E. coli Biofilm
[7] = Furan analogues table, read-out: MIC MRSA
[8] = planktonic, Furan analogues table, read-out: MIC E. coli Plank
[9] = Furan analogues table, read-out: MIC H. pylori
[10] = broth dilution, Brain Heart Infusion, 24 h, read-out: MIC (μM) C. jejuni
[11] = broth dilution, Trypticase Soy, 24 h, read-out: MIC (μM) S. epidermidis Plank
[12] = biofilm, read-out: MIC (μM) E. coli Biofilm
[13] = broth dilution, Trypticase Soy, 24 h, read-out: MIC (μM) MRSA
[14] = broth dilution, LB medium, 24 h, read-out: MIC (μM) E. coli Plank
[15] = broth dilution, Brain Heart Infusion, 24 h, read-out: MIC (μM) H. pylori

MIC (C. jejuni; [4]): 110.6 µM (≈ 32 µg/mL)
MIC S. epidermidis Biofilm (S. epidermidis biofilm; Furan analogues table): 110.6 µM (≈ 32 µg/mL)
MIC (S. epidermidis; [5]): 110.6 µM (≈ 32 µg/mL)
MIC (E. coli biofilm; [6]): 110.6 µM (≈ 32 µg/mL)
PFOR inhibition relative to nitazoxanide (=100) ([1]; Furan analogues table): 70%
MIC (MRSA; [7]): 57.0 µM (≈ 16.5 µg/mL)
MIC (E. coli; [8]): 110.6 µM (≈ 32 µg/mL)
MIC (H. pylori; [9]): 0.6 µM (≈ 0.174 µg/mL)
SMILES: O=C(Nc1ncc([N+](=O)[O-])s1)c1cc2ccccc2o1 [VPC161144]

SMILES: O=C(Nc1ncc([N+](=O)[O-])s1)c1cc(Br)c(Br)o1 [VPC161164]
MIC (C. jejuni; [4]): 20.2 µM (≈ 8.02 µg/mL)
MIC S. epidermidis Biofilm (S. epidermidis biofilm; Furan analogues table): 20.2 µM (≈ 8.02 µg/mL)
MIC (S. epidermidis; [5]): 15.1 µM (≈ 5.99 µg/mL)
MIC (E. coli biofilm; [6]): 40.3 µM (≈ 16 µg/mL)
PFOR inhibition relative to nitazoxanide (=100) ([1]; Furan analogues table): 56%
MIC (MRSA; [7]): 3.8 µM (≈ 1.51 µg/mL)
MIC (E. coli; [8]): 60.5 µM (≈ 24 µg/mL)
MIC (H. pylori; [9]): 2.8 µM (≈ 1.11 µg/mL)

SMILES: O=C(Nc1ncc([N+](=O)[O-])s1)c1ccc(F)cc1 [VPC161167, 4-Fluoro-N-(5-nitrothiazol-2-yl)benzamide]
MIC (C. jejuni; Campylobacter jejuni, 24 h, read-out: MIC (μM) C. jejuni): 2.8 µM (≈ 0.748 µg/mL)
MIC (μM) S. epidermidis Biofilm (S. epidermidis biofilm): 29.9 µM (≈ 7.99 µg/mL)
MIC (S. epidermidis; Staphylococcus epidermidis, 24 h, read-out: MIC (μM) S. epidermidis Plank): 15 µM (≈ 4.01 µg/mL)
MIC (E. coli biofilm; Escherichia coli, read-out: MIC (μM) E. coli Biofilm): 120 µM (≈ 32 µg/mL)
PFOR inhibition relative to nitazoxanide (=100) [1]: 99%
MIC (MRSA; Staphylococcus aureus, MRSA, 24 h, read-out: MIC (μM) MRSA): 8.4 µM (≈ 2.24 µg/mL)
Disk Diffusion (%) C. difficile (C. difficile [2]; zone of inhibited growth as relative ratio to the zone for NTZ): 89%
MIC (E. coli; Escherichia coli, 24 h, read-out: MIC (μM) E. coli Plank): 120 µM (≈ 32 µg/mL)
MIC (H. pylori; Helicobacter pylori, 24 h, read-out: MIC (μM) H. pylori): 0.9 µM (≈ 0.241 µg/mL)

SMILES: O=C(Nc1ncc([N+](=O)[O-])s1)c1ccc(C(=O)C(F)(F)F)cc1 [VPC161175]
MIC (C. jejuni; [10]): 69.5 µM (≈ 24 µg/mL)
MIC (μM) S. epidermidis Biofilm (S. epidermidis biofilm): 92.7 µM (≈ 32 µg/mL)
MIC (S. epidermidis; [11]): 92.7 µM (≈ 32 µg/mL)
MIC (E. coli biofilm; [12]): 92.7 µM (≈ 32 µg/mL)
MIC (MRSA; [13]): 92.7 µM (≈ 32 µg/mL)
MIC (C. difficile [3]; agar dilution, anaerobic, Wilkins Chalgrin agar, read-out: MIC (μM) C. difficile): 23.2 µM (≈ 8.01 µg/mL)
MIC (E. coli; [14]): 92.7 µM (≈ 32 µg/mL)
MIC (H. pylori; [15]): 4.3 µM (≈ 1.48 µg/mL)

SMILES: O=C(Nc1ncc([N+](=O)[O-])s1)c1cc2ccccc2s1 [VPC161180]
MIC (C. jejuni; Thiophene analogues table, read-out: MIC C. jejuni): 9.8 µM (≈ 2.99 µg/mL)
MIC S. epidermidis Biofilm (S. epidermidis biofilm; Thiophene analogues table): 19.7 µM (≈ 6.02 µg/mL)
MIC (S. epidermidis; planktonic, Thiophene analogues table, read-out: MIC S. epidermidis Plank): 13.1 µM (≈ 4 µg/mL)
MIC (E. coli biofilm; biofilm, Thiophene analogues table, read-out: MIC E. coli Biofilm): 104.8 µM (≈ 32 µg/mL)
MIC (MRSA; Thiophene analogues table, read-out: MIC MRSA): 6.6 µM (≈ 2.02 µg/mL)
MIC (C. difficile [3]; Thiophene analogues table, read-out: MIC C. difficile): 13.1 µM (≈ 4 µg/mL)
Disk Diff (%) C. difficile (C. difficile [2]): 81%
MIC (E. coli; planktonic, Thiophene analogues table, read-out: MIC E. coli Plank): 104.8 µM (≈ 32 µg/mL)
MIC (H. pylori; Thiophene analogues table, read-out: MIC H. pylori): 2.5 µM (≈ 0.763 µg/mL)

MIC (C. jejuni; Campylobacter jejuni, Thiophene analogues table, read-out: MIC C. jejuni): 5.9 µM (≈ 2 µg/mL)
MIC S. epidermidis Biofilm (S. epidermidis biofilm; Thiophene analogues table): 11.8 µM (≈ 4.01 µg/mL)
MIC (S. epidermidis; Staphylococcus epidermidis, planktonic, Thiophene analogues table, read-out: MIC S. epidermidis Plank): 5.9 µM (≈ 2 µg/mL)
MIC (E. coli biofilm; Escherichia coli, biofilm, Thiophene analogues table, read-out: MIC E. coli Biofilm): 94.2 µM (≈ 32 µg/mL)
MIC (MRSA; Staphylococcus aureus, MRSA, Thiophene analogues table, read-out: MIC MRSA): 2.9 µM (≈ 0.985 µg/mL)
MIC (C. difficile [3]; Clostridioides difficile, Thiophene analogues table, read-out: MIC C. difficile): 11.8 µM (≈ 4.01 µg/mL)
MIC (E. coli; Escherichia coli, planktonic, Thiophene analogues table, read-out: MIC E. coli Plank): 94.2 µM (≈ 32 µg/mL)
MIC (H. pylori; Helicobacter pylori, Thiophene analogues table, read-out: MIC H. pylori): 2.2 µM (≈ 0.748 µg/mL)
SMILES: O=C(Nc1ncc([N+](=O)[O-])s1)c1sc2ccccc2c1Cl [VPC161181]
Disk Diff (%) C. difficile (C. difficile [2]): 72%

SMILES: O=C(C=Cc1ccccc1)Nc1ncc([N+](=O)[O-])s1 [VPC161200]
MIC (C. jejuni; [10]): 2.7 µM (≈ 0.743 µg/mL)
MIC (μM) S. epidermidis Biofilm (S. epidermidis biofilm): 14.5 µM (≈ 3.99 µg/mL)
MIC (S. epidermidis; [11]): 29.1 µM (≈ 8.01 µg/mL)
MIC (E. coli biofilm; [12]): 116.2 µM (≈ 32 µg/mL)
PFOR inhibition relative to nitazoxanide (=100) [1]: 93%
MIC (MRSA; [13]): 116.2 µM (≈ 32 µg/mL)
MIC (E. coli; [14]): 116.2 µM (≈ 32 µg/mL)
MIC (H. pylori; [15]): 0.3 µM (≈ 0.0826 µg/mL)
